Source: US12285407B2, “Bis-indolylmethane derivatives and uses thereof” (The University of The West Indies, priority 2018, dated 2025)

Columns and labels:
[1] = test system: Streptococcus pyogenes ATCC 19615; assay: Broth microdilution MIC of SP-BIMs; format: cell-based; details: ATCC19615, SP-BIM alone, read-out: MIC Streptococcus pyogenes ATCC 19615
[2] = test system: Bacillus cereus ATCC 14579; assay: Broth microdilution MIC of SP-BIMs; format: cell-based; details: ATCC14579, SP-BIM alone, read-out: MIC Bacillus cereus ATCC 14579
[3] = test system: Enterococcus faecium ATCC 19434; assay: Broth microdilution MIC of SP-BIMs; format: cell-based; details: ATCC19434, SP-BIM alone, read-out: MIC Enterococcus faecium ATCC 19434
[4] = test system: Corynebacterium diphtheriae ATCC 27010; assay: Broth microdilution MIC of SP-BIMs; format: cell-based; details: ATCC27010, SP-BIM alone, read-out: MIC Corynebacterium diphtheriae ATCC 27010
[5] = test system: Staphylococcus aureus ATCC 12600; assay: Broth microdilution MIC of SP-BIMs; format: cell-based; details: ATCC12600, SP-BIM alone, read-out: MIC Staphylococcus aureus ATCC 12600
[6] = test system: Klebsiella pneumoniae ATCC 49472; assay: Broth microdilution MIC of SP-BIMs; format: cell-based; details: ATCC49472, SP-BIM alone, read-out: MIC Klebisella pneumoniae ATCC 49472
[7] = test system: Escherichia coli ATCC 35218; assay: Broth microdilution MIC of SP-BIMs; format: cell-based; details: ATCC35218, SP-BIM alone, read-out: MIC Escherichia coli ATCC 35218
[8] = test system: Salmonella typhimurium ATCC 14028; assay: Broth microdilution MIC of SP-BIMs; format: cell-based; details: Salmonella enterica, read-out: MIC Salmonella tvpkimurium ATCC 14028
Excerpt: Reference microorganisms used in this study included: Bacillus cereus (American Type Culture Collection (ATCC) No. 14579), Streptococcus pyogenes (ATCC No. 19615), Staphylococcus aureus (ATCC No. 12600), Enterococcus faecium (ATCC No. 19434), Corynebacterium diphtheriae (ATCC No. 27010), Escherichia coli (ATCC No. 35218), Salmonella typhimurium (ATCC No. 14028), Pseudomonas aeruginosa (ATCC No. 27853), Klebsiella pneumoniae (ATCC No. 49472), and Candida albicans (ATCC No. 22972).
Prior to each experiment, cultures were streaked onto clean BHI agar plates and incubated at 35° C. for 24 hours. Colonies of the respective cultures were selected and inoculated in phosphate buffer saline (pH 7.5) to a 0.5 McFarland turbidity standard (equivalent to 10^8 CFU mL^−1). The bacterial suspension was then diluted 1:100 in cation adjusted Mueller Hinton Broth (ca-MHB) (Oxoid Ltd, Basingstoke, Hampshire, England).
Stock solutions (50 mg mL^−1) of the SP-BIM test compounds were prepared in DMSO and stored at 4° C. Working preparations of each compound was made up to 1 mg/mL in sterile deionized water with a final DMSO concentration of 10%.
To assess the antibiotic properties of the library of SP-BIMs, the broth microdilution assay was performed in 96-well microplates according to the Clinical and Laboratory Standards Institute 2014 Guidelines (CLSI 2014). The broth microdilution assay was used to determine the minimum inhibitory concentration (MIC). […] Bacterial cells (˜10^6 CFU mL^−1) were inoculated into cation adjusted-Mueller Hinton broth containing the test compound in a twofold serial dilution ranging between 250 μg mL^−1 and 0.02 μg mL^−1. Plates were incubated at 35° C. for 18 hours after which 50 μL of 5% resazurin solution was added to each well. Resazurin is a blue dye which, upon reduction by living cells, turns to a pink resorufin product. Plates were shaken for 1 hour after the addition of the dye. The MIC was recorded as the well with the lowest concentration of test compound where no color change was observed.

[9] = test system: Pseudomonas aeruginosa ATCC 27853; assay: Broth microdilution MIC of SP-BIMs; format: cell-based; details: ATCC27853, SP-BIM alone, read-out: MIC Pseudomonas aeruginosa ATCC 27853
[10] = test system: Candida albicans ATCC 22972; assay: Broth microdilution MIC of SP-BIMs; format: cell-based; details: ATCC22972, SP-BIM alone, read-out: MIC Candida albicans ATCC 22972
Streptococcus pneumoniae [11] = assay: Adjuvant broth microdilution (antibiotic MIC with SP-BIM at 50 μg/mL); format: cell-based; details: Streptococcus pneumoniae, Streptococcus pneumonia, SP-BIM at 50 μg mL^−1
Gram-negative bacteria = assay: Adjuvant broth microdilution; format: cell-based; details: SP-BIM at 50 μg mL^−1
Description: To each well, the SP-BIM to be tested was added to a final concentration of 50 μg mL^−1. […] SP-BIMs were assessed as potential adjuvants based on their ability to reduce the MIC of the antibiotic against respective pathogen.

sheep erythrocyte = assay: Hemotoxicity (hemolysis assay); format: cell-based; details: 2% sheep erythrocyte solution; SP-BIMs 6, 11 and 18 at concentrations between 125-16 μg mL^−1
Description: Hemotoxicity of the SP-BIMs were assessed following Wauford, “Hemolysis Assay”, protocols.io/view/hemolysis-assay-fxkbpkw (2016). Briefly, twofold serial dilutions of each test SP-BIM were added to 2% sheep erythrocyte solution and incubated for 30 minutes at 37° C. Samples were centrifuged at 2500 g for 5 minutes and the absorbance of the supernatants measured at 541 nm. Values were represented as percent hemolysis using freeze thaw cells as 100% lysis.

Staphylococcus aureus = assay: Checkerboard synergy (FICI) of antibiotics with SP-BIM; format: cell-based
Streptococcus pneumoniae [12] = assay: as above; format: cell-based; details: Streptococcus pneumoniae
Bacillus cereus = assay: as above; format: cell-based; details: SP-BIM 9 alone, one value per antibiotic's checkerboard, read-out: MIC SP-BIM 9 only
Enterococcus faecium = assay: as above; format: cell-based
Klebsiella pneumoniae = assay: as above; format: cell-based; details: SP-BIM 9 alone, one value per antibiotic's checkerboard, read-out: MIC SP-BIM 9 only
[13] = test system: reference pathogen strains; assay: Checkerboard synergy study, summary over pathogens; format: cell-based; details: Gram-positive pathogens
MRSA HS 10132 = assay: Systemic non-lethal MRSA infection in mice (organ MRSA load); format: in vivo
Escherichia coli = assay: Checkerboard synergy (FICI) of antibiotics with SP-BIM; details: read-out: MIC SP-BIM 9 only, Escherichia coli, SP-BIM 9 alone, one value per antibiotic's checkerboard
[14] = read-out: MIC of Kanamvcin with SP-BIM
[15] = read-out: MIC of Vancomvcin with SP-BIM
[16] = MRSA, checkerboard with SP-BIM 9
[17] = ampicillin and SP-BIM 9 at 5 mg kg^−1
[18] = ampicillin and SP-BIM 9 at 10 mg kg^−1

SMILES: O=Cc1cccc(C(c2c[nH]c3ccccc23)c2c[nH]c3ccccc23)c1 [SP-BIM 6, 3-(di(1H-indol-3-yl)methyl)benzaldehyde]
- MIC [1]: > 250 µg/mL
- MIC [2]: > 250 µg/mL
- MIC [3]: > 250 µg/mL
- MIC [4]: > 250 µg/mL
- MIC [5]: > 250 µg/mL
- MIC [6]: > 250 µg/mL
- MIC [7]: > 250 µg/mL
- MIC [8]: 250 µg/mL
- MIC [9]: 250 µg/mL
- MIC [10]: 250 µg/mL
- MIC (Streptococcus pneumoniae [11]; [14]): 4 µg/mL
- MIC (Streptococcus pneumoniae [11]; [15]): 0.5 µg/mL
- potentiating activity for Gram-negative bacteria (Gram-negative bacteria): No potentiating activity was observed
- hemotoxicity (sheep erythrocyte): very hemotoxic

SMILES: Oc1cccc(C(c2c[nH]c3ccccc23)c2c[nH]c3ccccc23)c1 [SP-BIM 9, 3-(di(1H-indol-3-yl)methyl)phenol]
- MIC [1]: > 250 µg/mL
- MIC [2]: > 250 µg/mL
- MIC [3]: > 250 µg/mL
- MIC [4]: > 250 µg/mL
- MIC [5]: > 250 µg/mL
- MIC [6]: > 250 µg/mL
- MIC [7]: > 250 µg/mL
- MIC [8]: 250 µg/mL
- MIC [9]: 250 µg/mL
- MIC [10]: 250 µg/mL
- MIC (Streptococcus pneumoniae [11]; [14]): 4 µg/mL
- MIC (Streptococcus pneumoniae [11]; [15]): 0.2 µg/mL
- MIC of aztreonam in combination with 32 μg mL^−1 of SP-BIM 9 (Staphylococcus aureus; MRSA, checkerboard): 8 µg/mL
- effect on MIC of trimethoprim (Staphylococcus aureus; [16]): an increase in the MIC was observed
- reduction of MICs of all the antibiotics except trimethoprim (Staphylococcus aureus; [16]): at least 4 fold
- MIC (Staphylococcus aureus; Staphylococcus aureus, SP-BIM 9 alone, one value per antibiotic's checkerboard, read-out: MIC SP-BIM 9 only): > 250 µg/mL
- MIC (Streptococcus pneumoniae [12]; Streptococcus pneumonia (title: Streptococcus pyogenes), SP-BIM 9 alone, one value per antibiotic's checkerboard, read-out: MIC SP-BIM 9 only): > 250 µg/mL
- effect on MIC of erythromycin (Streptococcus pneumoniae [12]; checkerboard with SP-BIM 9): no effect was observed
- lowering of the MIC of the antibiotics (Streptococcus pneumoniae [12]; checkerboard with SP-BIM 9): at least 4 fold
- MIC (Bacillus cereus): > 250 µg/mL
- MIC of vancomycin with 63 μg mL^−1 SP-BIM 9 (Enterococcus faecium; Enterococcus faecium strain highly resistant to vancomycin): reduced to susceptible levels
- MIC (Enterococcus faecium; Enterococcus faecium, SP-BIM 9 alone, one value per antibiotic's checkerboard, read-out: MIC SP-BIM 9 only): ≥ 250 µg/mL
- MIC (Klebsiella pneumoniae): ≥ 250 µg/mL
- FICI with most of the antibiotics [13]: ≤ 0.5
- MRSA counts in the liver (MRSA HS 10132; SP-BIM 9 only 5 mg kg^−1): 3911 CFU g^−1
- MRSA load in the spleen (MRSA HS 10132; SP-BIM 9 only 5 mg kg^−1): 7327 CFU g^−1
- MRSA counts in the liver (MRSA HS 10132; SP-BIM 9 only 10 mg kg^−1): 2861 CFU g^−1
- MRSA load in the spleen (MRSA HS 10132; SP-BIM 9 only 10 mg kg^−1): 5800 CFU g^−1
- MRSA counts in the liver (MRSA HS 10132; [17]): 167 CFU g^−1
- MRSA load in the spleen (MRSA HS 10132; [17]): 288 CFU g^−1
- MRSA counts in the liver (MRSA HS 10132; [18]): 189 CFU g^−1
- MRSA load in the spleen (MRSA HS 10132; [18]): 211 CFU g^−1
- MIC (Escherichia coli): ≥ 250 µg/mL

SMILES: Nc1ccc(C(c2c[nH]c3ccccc23)c2c[nH]c3ccccc23)cc1 [SP-BIM 10, 4-(di(1H-indol-3-yl)methyl)aniline]
- MIC [1]: > 250 µg/mL
- MIC [2]: > 250 µg/mL
- MIC [3]: > 250 µg/mL
- MIC [4]: > 250 µg/mL
- MIC [5]: > 250 µg/mL
- MIC [6]: > 250 µg/mL
- MIC [7]: > 250 µg/mL
- MIC [8]: 250 µg/mL
- MIC [9]: 250 µg/mL
- MIC [10]: 250 µg/mL
- MIC (Streptococcus pneumoniae [11]; [14]): 4 µg/mL
- MIC (Streptococcus pneumoniae [11]; [15]): 0.5 µg/mL
- potentiating activity for Gram-negative bacteria (Gram-negative bacteria): No potentiating activity was observed

SMILES: Oc1ccccc1C(c1c[nH]c2ccccc12)c1c[nH]c2ccccc12 [SP-BIM 11, bis(indol-3-yl)-2-hydroxyphenylmethane]
- MIC [1]: > 250 µg/mL
- MIC [2]: > 250 µg/mL
- MIC [3]: > 250 µg/mL
- MIC [4]: > 250 µg/mL
- MIC [5]: > 250 µg/mL
- MIC [6]: > 250 µg/mL
- MIC [7]: > 250 µg/mL
- MIC [8]: 250 µg/mL
- MIC [9]: 250 µg/mL
- MIC [10]: 250 µg/mL
- MIC (Streptococcus pneumoniae [11]; [14]): 125 µg/mL
- MIC (Streptococcus pneumoniae [11]; [15]): 1 µg/mL
- hemotoxicity (sheep erythrocyte): very hemotoxic

SMILES: Oc1cc(Br)ccc1C(c1c[nH]c2ccccc12)c1c[nH]c2ccccc12 [SP-BIM 15, 5-bromo-2-(di(1H-indol-3-yl)methyl)phenol]
- MIC [1]: 125 µg/mL
- MIC [2]: 125 µg/mL
- MIC [3]: 125 µg/mL
- MIC [4]: > 250 µg/mL
- MIC [5]: > 250 µg/mL
- MIC [6]: > 250 µg/mL
- MIC [7]: > 250 µg/mL
- MIC [8]: 250 µg/mL
- MIC [9]: 250 µg/mL
- MIC [10]: 250 µg/mL
- MIC (Streptococcus pneumoniae [11]; [14]): 4 µg/mL
- MIC (Streptococcus pneumoniae [11]; [15]): 0.2 µg/mL
- potentiating activity for Gram-negative bacteria (Gram-negative bacteria): No potentiating activity was observed

SMILES: COc1ccc(C(c2c[nH]c3ccccc23)c2c[nH]c3ccccc23)cc1 [SP-BIM 18, bis(indol-3-yl)-4-methoxyphenylmethane]
- MIC [1]: > 250 µg/mL
- MIC [2]: > 250 µg/mL
- MIC [3]: > 250 µg/mL
- MIC [4]: > 250 µg/mL
- MIC [5]: > 250 µg/mL
- MIC [6]: > 250 µg/mL
- MIC [7]: > 250 µg/mL
- MIC [8]: 250 µg/mL
- MIC [9]: 250 µg/mL
- MIC [10]: 250 µg/mL
- MIC (Streptococcus pneumoniae [11]; [14]): 125 µg/mL
- MIC (Streptococcus pneumoniae [11]; [15]): 1 µg/mL
- hemotoxicity (sheep erythrocyte): very hemotoxic
